# In article PMC10747733, “N-Substituted 2-(Benzenosulfonyl)-1-Carbotioamide Derivatives Exert Antimicrobial and Cytotoxic Effects via Aldehyde Dehydrogenase Pathway: Synthesis, In Silico and In Vitro Studies” (Pharmaceuticals, 2023):
# Experiments:
# Assay in all cases: Broth microdilution antimicrobial activity
# Assay type in all cases: cell-based
# [1] = tested on: Bacillus cereus ATCC 10876
# Source text: (§1) Reference strains of microorganisms that came from American Type Culture Collection (ATCC) (Manassas, VA, USA) were used for this study. The representative Gram-positive bacteria were as follows: Staphylococcus aureus ATCC 25923, Staphylococcus aureus ATCC 29213, Staphylococcus aureus ATCC 43300, Staphylococcus epidermidis ATCC 12228, Enterococcus faecalis ATCC 29212, Micrococcus luteus ATCC 10240, Bacillus subtilis ATCC 6633 and Bacillus cereus ATCC 10876. While, those of Gram-negative bacteria were as follows: Bordetella bronchiseptica ATCC 4617, Escherichia coli ATCC 25922, Klebsiella pneumoniae ATCC 13883, Proteus mirabilis ATCC 12453, Salmonella Typhimurium ATCC 14028 and Pseudomonas aeruginosa ATCC 9027. Moreover, the following fungi belonging to yeasts were used: Candida albicans ATCC 10231, Candida albicans ATCC 2091, Candida parapsilosis ATCC 22019, Candida glabrata ATCC 90030 and Candida krusei ATCC 14243.
# (§2) The new compounds WZ1–WZ4 were assayed for both antibacterial and antifungal activity using the broth microdilution method in accordance with the European Committee on Antimicrobial Susceptibility Testing (EUCAST) and Clinical and Laboratory Standards Institute (CLSI) guidelines. The microorganisms were grown at 35 °C for 18–24 h on appropriate media (nutrient agar and Sabouraud for bacteria and fungi, respectively) (BioMaxima S.A., Lublin, Poland). Next, microbial suspensions with an optical density of 0.5 McFarland standard scale (in sterile 0.85% NaCl) were prepared. In turn, the tested compounds were initially diluted at 50 mg/mL in dimethyl sulfoxide (DMSO) and the broth microdilution method was used to assess their minimum inhibitory concentrations (MICs). For these studies, selective broth Mueller-Hinton (MH) (BioMaxima S.A., Lublin, Poland) and RPMI (Roswell Park Memorial Institute) 1640 with MOPS (3-(N-Morpholino)propanesulfonic acid) (Sigma-Aldrich Chemicals, St. Louis, MO, USA) were used for bacteria and fungi, respectively. The antimicrobial effect of compounds WZ1–WZ4 was determined in the concentration range from 2000 to 0.98 µg/mL.
# (§3) Then, the microbial suspensions were introduced into each well of the microplate and incubated for 18–24 h at 35 °C. […] The reference drugs ciprofloxacin or vancomycin (against bacteria) and nystatin (against fungi) (Sigma-Aldrich Chemicals, St. Louis, MO, USA) were also used. Next, the values of the minimum bactericidal concentration (MBC) and minimum fungicidal concentration (MFC) of WZ1–WZ4 were assessed. For this purpose, the cultures from each MIC determination well were transferred to a suitable solid medium and incubated under appropriate conditions. The lowest concentrations of compounds without microbial growth were read as MBC or MFC. The studies were performed in triplicate and representative data were gathered.
# (§4) In turn, the MBC/MIC or MFC/MIC ratios were used to assess bactericidal/fungicidal (MBC/MIC or MFC/MIC ≤ 4) and bacteriostatic/fungistatic (MBC/MIC or MFC/MIC > 4) effect of these compounds [93].
# [2] = tested on: Bacillus subtilis ATCC 6633
# Source text: as §1, §2, §3, §4
# [3] = tested on: Bordetella bronchiseptica ATCC 4617
# Source text: as §1, §2, §3, §4
# [4] = tested on: Candida albicans ATCC 10231
# Source text: as §1, §2, §3, §4
# [5] = tested on: Candida albicans ATCC 2091
# Source text: as §1, §2, §3, §4
# [6] = tested on: Candida glabrata ATCC 90030
# Source text: as §1, §2, §3, §4
# [7] = tested on: Candida krusei ATCC 14243
# Source text: as §1, §2, §3, §4
# [8] = tested on: Candida parapsilosis ATCC 22019
# Source text: as §1, §2, §3, §4
# [9] = tested on: Enterococcus faecalis ATCC 29212; conditions: Enterococcus faecalis ATCC 29212
# Source text: as §1, §2, §3, §4
# [10] = tested on: Escherichia coli ATCC 25922
# Source text: as §1, §2, §3, §4
# [11] = tested on: Klebsiella pneumoniae ATCC 13883
# Source text: as §1, §2, §3, §4
# [12] = tested on: Micrococcus luteus ATCC 10240
# Source text: as §1, §2, §3, §4
# [13] = tested on: Proteus mirabilis ATCC 12453
# Source text: as §1, §2, §3, §4
# [14] = tested on: Pseudomonas aeruginosa ATCC 9027
# Source text: as §1, §2, §3, §4
# [15] = tested on: Salmonella Typhimurium ATCC 14028
# Source text: as §1, §2, §3, §4
# [16] = tested on: Staphylococcus aureus ATCC 25923
# Source text: as §1, §2, §3, §4
# [17] = tested on: Staphylococcus aureus ATCC 29213; conditions: Staphylococcus aureus ATCC 29213
# Source text: as §1, §2, §3, §4
# [18] = tested on: Staphylococcus aureus ATCC 43300; conditions: Staphylococcus aureus ATCC 43300
# Source text: as §1, §2, §3, §4
# [19] = tested on: Staphylococcus epidermidis ATCC 12228
# Source text: as §1, §2, §3, §4
structure (smiles),measurement,setting,value
"CNC(=S)NNS(=O)(=O)c1ccccc1 [WZ4, 2-(Benzenesulfonyl)-N-Methylhydrazine-1-Carbothioamide]",MBC/MIC,[1],2
same,MBC,[1]; ATCC10876,125 µg/mL
same,MIC,[1]; ATCC10876,62.5 µg/mL
same,MBC/MIC,[2],16
same,MBC,[2]; ATCC6633,2000 µg/mL
same,MIC,[2]; ATCC6633,125 µg/mL
same,MBC/MIC,[3],> 1
same,MBC,[3]; ATCC4617,> 2000 µg/mL
same,MIC,[3]; ATCC4617,> 2000 µg/mL
same,MFC/MIC,[4],2
same,MFC,"[4]; ATCC10231, read-out: MFC",1000 µg/mL
same,MIC,"[4]; ATCC10231, read-out: MIC",500 µg/mL
same,MFC/MIC,[5],4
same,MFC,"[5]; ATCC2091, read-out: MFC",1000 µg/mL
same,MIC,"[5]; ATCC2091, read-out: MIC",250 µg/mL
same,MFC/MIC,[6],4
same,MFC,"[6]; Nakaseomyces glabratus, ATCC90030, read-out: MFC",500 µg/mL
same,MIC,"[6]; Nakaseomyces glabratus, ATCC90030, read-out: MIC",125 µg/mL
same,MFC/MIC,[7],4
same,MFC,"[7]; Pichia kudriavzevii, ATCC14243, read-out: MFC",2000 µg/mL
same,MIC,"[7]; Pichia kudriavzevii, ATCC14243, read-out: MIC",500 µg/mL
same,MFC/MIC,[8],8
same,MFC,"[8]; Lodderomyces parapsilosis, ATCC22019, read-out: MFC",1000 µg/mL
same,MIC,"[8]; Lodderomyces parapsilosis, ATCC22019, read-out: MIC",125 µg/mL
same,MBC,"[9]; ATCC29212, read-out: MBC",> 2000 µg/mL
same,MIC,"[9]; ATCC29212, read-out: MIC",1000 µg/mL
same,MBC/MIC,[9],> 2
same,MBC/MIC,[10],> 1
same,MBC,[10]; ATCC25922,> 2000 µg/mL
same,MIC,[10]; ATCC25922,> 2000 µg/mL
same,MBC/MIC,[11],> 1
same,MBC,[11]; ATCC13883,> 2000 µg/mL
same,MIC,[11]; ATCC13883,> 2000 µg/mL
same,MBC/MIC,[12],2
same,MBC,[12]; ATCC10240,500 µg/mL
same,MIC,[12]; ATCC10240,250 µg/mL
same,MBC/MIC,[13],> 1
same,MBC,[13]; ATCC12453,> 2000 µg/mL
same,MIC,[13]; ATCC12453,> 2000 µg/mL
same,MBC/MIC,[14],> 1
same,MBC,[14]; ATCC9027,> 2000 µg/mL
same,MIC,[14]; ATCC9027,> 2000 µg/mL
same,MBC/MIC,[15],> 1
same,MBC,[15]; Salmonella enterica,> 2000 µg/mL
same,MIC,[15]; Salmonella enterica,> 2000 µg/mL
same,MBC/MIC,[16],> 4
same,MBC,[16]; ATCC25923,> 2000 µg/mL
same,MIC,[16]; ATCC25923,500 µg/mL
same,MBC,[17]; ATCC29213,> 2000 µg/mL
same,MIC,[17]; ATCC29213,1000 µg/mL
same,MBC/MIC,[17],> 2
same,MBC,[18]; ATCC43300,2000 µg/mL
same,MIC,[18]; ATCC43300,500 µg/mL
same,MBC/MIC,[18],4
same,MBC/MIC,[19],4
same,MBC,[19]; ATCC12228,500 µg/mL
same,MIC,[19]; ATCC12228,125 µg/mL
